Measurements: patent publication US9278958B2, “Anti-cancer compounds” (KATHOLIEKE UNIVERSITEIT LEUVEN, priority 2012, dated 2016)
Like-named read-outs stand apart in the source and are kept apart here.

Columns and labels:
[1] = system: CEM cells; assay: Cytostatic assay, CEM; type: cell-based; settings: for Ratio (tumor cell selectivity): ratio IC50 HeLa / IC50 CEM
Description: (§1) To each well of a 96-well microtiter plate were added 5-7.5×10^4 cells and a given amount of the test compound. The cells were allowed to proliferate for 48 h to 96 h (depending on the nature of the cell line) at 37° C. in a humidified CO2-controlled atmosphere. At the end of the incubation period, the cells were counted in a Coulter Counter (Coulter Electronics Ltd, Harpenden Herts, United Kingdom).

[2] = system: HeLa cervix carcinoma cells; assay: Cytostatic assay, HeLa; type: cell-based, human
Description: as §1

[3] = Homo sapiens, CCRF-CEM, CEM cells, Table 7, 5-arylthiomethyl-substituted 2-amino-3-carboxymethylthiophenes, read-out: IC50 (μM) CEM
[4] = Homo sapiens, HeLa cells, Table 7, 5-arylthiomethyl-substituted 2-amino-3-carboxymethylthiophenes, read-out: IC50 (μM) HeLa
[5] = Table 1b, read-out: IC50 (μM) (CEM)
[6] = Table 1b, read-out: IC50 (μM) (HeLa)

IC50 [1, 3] [µM]	IC50 [2, 4] [µM]	SMILES	Ratio (tumor cell selectivity) ([1]; Table 7)	also measured
0.46	46	COC(=O)c1cc(CSc2ccc(C(C)C)cc2)sc1N [TJ186, Methyl 2-amino-5-((4-isopropylphenylthio)methyl)thiophene-3-carboxylate]	100	–
0.97	59	COC(=O)c1cc(CCCSc2ccc(OC)cc2)sc1N [TJ169, Methyl 2-amino-5-(3-(4-methoxyphenylthio)propyl)thiophene-3-carboxylate]	61	–
111	93	COC(=O)c1cc(CSc2ccncc2)sc1N [TJ129, Methyl 2-amino-5-((pyridin-4-ylthio)methyl)thiophene-3-carboxylate]	1	–
1.8	80	COC(=O)c1cc(CSC2CCCC2)sc1N [TJ179, Methyl 2-amino-5-(cyclopentylthiomethyl)thiophene-3-carboxylate]	44	–

The next lines start with the compound.

SMILES	IC50 [1, 3] [µM]	IC50 [2, 4] [µM]	Ratio (tumor cell selectivity) ([1]; Table 7)	also measured
COC(=O)c1cc(CSc2ccccc2C)sc1N [Compound D3, Methyl 2-amino-5-(o-tolylthiomethyl)thiophene-3-carboxylate]	2	71	36	–
COC(=O)c1cc(CSc2cccc(C)c2)sc1N [TJ54P, Methyl 2-amino-5-(2-(3-methylphenyl)sulfanylmethyl)thiophene-3-carboxylate]	–	–	26	IC50 ([1]; CEM cells, Table 7, 5-arylthiomethyl-substituted 2-amino-3-carboxymethylthiophenes, read-out: IC50 (μM) CEM): 4.1 µM; IC50 [1, 5]: 4.1 ± 1.7 µM; IC50 ([2]; HeLa cells, Table 7, 5-arylthiomethyl-substituted 2-amino-3-carboxymethylthiophenes, read-out: IC50 (μM) HeLa): 108 µM; IC50 [2, 6]: 108 µM
CCc1cc(C(=O)OC)c(N)s1 [TJ157, Methyl 2-amino-5-ethylthiophene-3-carboxylate]	–	–	–	IC50 ([1]; Homo sapiens, CCRF-CEM, CEM cells, Table 6, 5-alkyl-substituted 2-aminothiophenes, read-out: IC50 (μM) CEM): 175 µM; Ratio (tumor cell selectivity) ([1]; Table 6): 1; IC50 ([2]; Homo sapiens, HeLa cells, Table 6, 5-alkyl-substituted 2-aminothiophenes, read-out: IC50 (μM) HeLa): 180 µM
COC(=O)c1cc(CSc2cccc(C)c2)sc1N1C(=O)c2ccccc2C1=O [TJ54SM, Methyl 2-phthalimido-5-(2-(3-methylphenyl)sulfanylmethyl)thiophene-3-carboxylate]	–	–	–	IC50 [1, 5]: 6.9 ± 0.7 µM; IC50 [2, 6]: 121 ± 13 µM
